Test [1] can be described thus: inhibitors of firefly luciferase expression or activity, dose response, H4 neuroglioma cells, luminescence (AID 1990). Format: functional, cell-based.
In test [2] the test system is BJ. The test can be described thus: cytotoxicity toward BJ-TERT fibroblasts, dose response, cell-based, RAS-independent, luminescence (AID 1933). In kind it is functional. The following applies: Homo sapiens.
The nature of test [3]: Luminescence Cell-Based Dose Response HTS to Identify Inhibitors of 5'UTR Stem-Loop Driven Prion Protein mRNA Translation in H4 Neuroglioblastoma Cells. [Related pubchem assays: 1827 (Project Summary), 1813 (Primary HTS)]. Format: functional.
A short description of test [4]: inhibitors of SNCA 5'UTR-driven reporter translation, confirmation, H4 neuroglioma cells, luminescence (AID 1988). Format: functional, cell-based.
Test [5] has as its system BJ. The test can be described thus: cells. Format: functional, cell-based. The following applies: Homo sapiens.
The subject of a further test is J774.A1. The test can be described thus: Confirmation of image-based Screening Assay for Inhibitors of Phagocytosis. [Related pubchem assays (depositor defined):AID1029, AID1643]. In kind it is functional, cell-based. The following applies: Mus musculus.
Test [6] deals with BJ. The test can be described thus: cytotoxicity toward BJ-TERT-LT-ST fibroblasts, dose response, cell-based, RAS-independent, luminescence (AID 1935).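 Note: BJ fibroblasts immortalized with TERT plus LT and ST oncogenes.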 In kind it is functional. The note with it: Homo sapiens.
Test [7] can be described thus: cytotoxicity toward DRD oncogenic fibroblasts, dose response, cell-based, non-viral oncogenic, luminescence (AID 1934). Format: functional. The following applies: Homo sapiens.
Test [8] is described as follows: cytotoxicity in HEK-293T cells, dose response, cytotoxicity control for TCR NF-kB inhibitor project, luminescence, T-cell screen hits (AID 489026).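 Note: cells exposed to compound about 14 hours before the viability readout.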 Format: functional, cell-based.
Test [9] has as its system BJ. The test can be described thus: cytotoxicity toward Ras-transformed BJeLR fibroblasts, dose response, cell-based, alamar blue fluorescence, cherrypicked samples (AID 2631).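 Note: confirmatory dose-response assay in RAS-dependent BJ fibroblasts engineered with TERT, LT and ST, with cytotoxicity read by fluorescence.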 Format: functional. The following applies: Homo sapiens. In general terms: Alamar Blue is a resazurin reagent that responds to reducing activity.
The target of test [10] is T1, Delta-type opioid receptor (Homo sapiens, UniProt P41143). The test can be described thus: HTS Image-Based Screen for Antagonists of the DOR Receptor. [Related pubchem assays (depositor defined):AID1777, AID1785, AID1786, AID2133]. Format: functional.
The next test has as its target Mu-type opioid receptor (Homo sapiens, UniProt P35372). The test can be described thus: HTS Image-Based Screen for Agonists of the MOR Receptor. [Related pubchem assays (depositor defined):AID1777, AID1785, AID1786, AID2133]. In kind it is functional.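 Note: imaging of beta-arrestin GFP recruitment into spots after receptor activation.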
Test [11] deals with T1, Delta-type opioid receptor. The test can be described thus: HTS Image-Based Screen for Agonists of the DOR Receptor. [Related pubchem assays (depositor defined):AID1777, AID1786, AID2133]. Format: functional.
Test [12] concerns the target T2, Kappa-type opioid receptor (Homo sapiens, UniProt P41145). In kind it is functional.
For test [13], the target named is T2, Kappa-type opioid receptor. Format: functional. The source holds these as a separate data set.
The target in the next test is Trypsin (Sus scrofa, UniProt P00761). The test can be described thus: porcine trypsin inhibitors, dose response, selectivity assay for Rce1 protease inhibitor project, biochemical, quenched peptide fluorescence, cherry-pick (AID 488789).
In a further test the target is CAAX prenyl protease 2 (Saccharomyces cerevisiae S288c, UniProt Q03530). In kind it is biochemical.
For test [14], the target named is Glyceraldehyde-3-phosphate dehydrogenase (Homo sapiens, UniProt P04406).
Test [15] concerns the target Alkaline phosphatase, placental type (Homo sapiens, UniProt P05187). The test can be described thus: PLAP enzyme inhibitors, confirmation, biochemical, luminescence (AID 1512). Format: functional.
Test [16] concerns the target T3, Alkaline phosphatase, tissue-nonspecific isozyme (Homo sapiens, UniProt P05186).
T3 sequence (P05186 whole entry): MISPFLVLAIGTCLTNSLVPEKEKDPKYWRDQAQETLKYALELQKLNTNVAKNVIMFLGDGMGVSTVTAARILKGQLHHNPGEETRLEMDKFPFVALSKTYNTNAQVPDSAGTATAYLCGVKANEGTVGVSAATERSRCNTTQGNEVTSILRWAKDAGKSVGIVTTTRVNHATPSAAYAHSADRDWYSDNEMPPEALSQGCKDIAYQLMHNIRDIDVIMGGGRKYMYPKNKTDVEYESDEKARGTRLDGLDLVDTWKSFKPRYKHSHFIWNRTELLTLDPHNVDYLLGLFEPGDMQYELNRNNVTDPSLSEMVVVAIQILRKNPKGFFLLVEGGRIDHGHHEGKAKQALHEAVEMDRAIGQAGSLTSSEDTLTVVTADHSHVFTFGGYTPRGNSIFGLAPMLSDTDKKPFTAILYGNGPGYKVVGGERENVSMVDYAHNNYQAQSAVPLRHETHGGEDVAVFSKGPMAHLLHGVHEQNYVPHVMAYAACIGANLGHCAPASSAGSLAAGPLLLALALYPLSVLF
The test can be described thus: human TNAP enzyme inhibitors, SAR follow-up, biochemical, luminescent, dose response (AID 1056).

The structures appear in SMILES notation. Active and inactive are the calls of the source. Some results are limits rather than exact numbers.

T1 sequence (P41143 whole entry): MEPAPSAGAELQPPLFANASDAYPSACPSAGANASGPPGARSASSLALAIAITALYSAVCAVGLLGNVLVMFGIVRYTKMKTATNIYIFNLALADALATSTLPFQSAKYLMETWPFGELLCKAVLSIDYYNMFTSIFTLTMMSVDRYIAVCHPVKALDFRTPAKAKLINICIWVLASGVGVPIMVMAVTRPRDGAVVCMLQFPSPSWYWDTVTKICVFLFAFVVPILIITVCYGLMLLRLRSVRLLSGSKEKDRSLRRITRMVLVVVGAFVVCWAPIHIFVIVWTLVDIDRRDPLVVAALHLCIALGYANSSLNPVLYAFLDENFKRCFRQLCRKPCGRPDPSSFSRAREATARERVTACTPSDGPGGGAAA
T2 sequence (P41145 whole entry): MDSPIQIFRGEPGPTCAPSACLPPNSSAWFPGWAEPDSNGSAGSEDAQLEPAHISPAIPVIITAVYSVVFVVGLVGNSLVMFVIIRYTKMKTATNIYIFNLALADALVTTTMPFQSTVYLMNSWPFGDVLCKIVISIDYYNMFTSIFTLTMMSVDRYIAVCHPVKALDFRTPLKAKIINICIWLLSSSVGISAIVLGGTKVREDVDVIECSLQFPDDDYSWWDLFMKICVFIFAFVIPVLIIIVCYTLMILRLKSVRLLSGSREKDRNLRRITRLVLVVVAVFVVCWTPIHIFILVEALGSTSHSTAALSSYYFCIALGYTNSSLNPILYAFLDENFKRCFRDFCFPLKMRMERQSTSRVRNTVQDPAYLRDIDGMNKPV
Chain of Glyceraldehyde-3-phosphate dehydrogenase (P04406 whole entry): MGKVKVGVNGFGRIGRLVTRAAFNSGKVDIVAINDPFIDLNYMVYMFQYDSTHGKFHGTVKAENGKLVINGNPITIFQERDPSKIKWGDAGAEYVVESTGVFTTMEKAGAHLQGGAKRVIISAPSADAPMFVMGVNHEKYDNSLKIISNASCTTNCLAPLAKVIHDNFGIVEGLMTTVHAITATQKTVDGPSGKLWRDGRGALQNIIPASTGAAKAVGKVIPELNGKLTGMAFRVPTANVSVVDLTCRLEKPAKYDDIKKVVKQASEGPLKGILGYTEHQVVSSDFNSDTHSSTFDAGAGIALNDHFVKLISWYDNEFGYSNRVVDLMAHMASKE
Chain of Trypsin (P00761 whole entry): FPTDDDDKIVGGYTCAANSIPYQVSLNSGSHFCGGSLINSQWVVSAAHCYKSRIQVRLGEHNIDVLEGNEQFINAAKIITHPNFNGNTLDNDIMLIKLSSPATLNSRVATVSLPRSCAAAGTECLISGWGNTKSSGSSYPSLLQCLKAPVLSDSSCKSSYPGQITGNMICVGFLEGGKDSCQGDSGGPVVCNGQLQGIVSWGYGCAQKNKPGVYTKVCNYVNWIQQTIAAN
Chain of Mu-type opioid receptor (P35372 whole entry): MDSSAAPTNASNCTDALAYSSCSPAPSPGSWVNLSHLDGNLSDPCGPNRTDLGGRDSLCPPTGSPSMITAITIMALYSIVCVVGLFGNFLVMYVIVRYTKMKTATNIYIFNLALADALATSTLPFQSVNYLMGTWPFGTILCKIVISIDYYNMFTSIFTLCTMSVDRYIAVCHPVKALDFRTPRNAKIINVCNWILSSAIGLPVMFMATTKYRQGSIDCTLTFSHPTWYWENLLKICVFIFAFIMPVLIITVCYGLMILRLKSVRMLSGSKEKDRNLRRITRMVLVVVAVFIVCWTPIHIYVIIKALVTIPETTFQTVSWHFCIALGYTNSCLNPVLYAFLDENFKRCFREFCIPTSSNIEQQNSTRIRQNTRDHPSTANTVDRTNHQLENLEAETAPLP
Chain of CAAX prenyl protease 2 (Q03530 whole entry): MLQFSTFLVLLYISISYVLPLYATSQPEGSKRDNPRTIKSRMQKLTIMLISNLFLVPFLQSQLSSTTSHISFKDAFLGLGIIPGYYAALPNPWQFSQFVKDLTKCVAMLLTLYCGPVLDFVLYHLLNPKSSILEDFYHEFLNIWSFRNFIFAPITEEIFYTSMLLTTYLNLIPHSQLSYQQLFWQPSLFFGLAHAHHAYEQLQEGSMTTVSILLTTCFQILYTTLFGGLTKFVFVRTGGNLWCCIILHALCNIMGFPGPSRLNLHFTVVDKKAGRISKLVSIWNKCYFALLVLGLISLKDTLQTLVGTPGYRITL
Chain of Alkaline phosphatase, placental type (P05187 whole entry): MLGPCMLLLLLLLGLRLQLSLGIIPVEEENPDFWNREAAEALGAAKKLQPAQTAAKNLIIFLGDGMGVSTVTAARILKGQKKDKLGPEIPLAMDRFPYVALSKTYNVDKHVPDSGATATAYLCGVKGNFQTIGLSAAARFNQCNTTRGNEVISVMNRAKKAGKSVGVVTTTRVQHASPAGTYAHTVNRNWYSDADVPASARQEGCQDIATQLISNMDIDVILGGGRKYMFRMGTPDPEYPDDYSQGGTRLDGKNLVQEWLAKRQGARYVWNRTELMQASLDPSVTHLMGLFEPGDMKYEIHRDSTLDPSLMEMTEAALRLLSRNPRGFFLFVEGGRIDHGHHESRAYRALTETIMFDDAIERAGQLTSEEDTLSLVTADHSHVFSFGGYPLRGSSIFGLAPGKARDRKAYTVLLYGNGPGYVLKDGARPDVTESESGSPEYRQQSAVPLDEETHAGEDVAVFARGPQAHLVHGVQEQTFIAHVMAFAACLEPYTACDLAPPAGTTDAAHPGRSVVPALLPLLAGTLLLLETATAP

One may read the EC50 as the concentration that produces a half-maximal response. As a reminder, the IC50 is the concentration needed to halve the response being measured. Take `COC(=O)c1[nH]c2c(c1C)C(=O)CC(c1cccs1)C2` (stereo not given): the EC50 in [1] is 4.98 µM (active); with BJ [2] it was 1.02 µM (active); in test [3], 7.34 µM (active); in [4] it was 0.469 µM (active); in the test with BJ [5] it was 3.72 µM (inconclusive); in the test on BJ [6] it was 0.873 µM (inconclusive). Moreover, the figures for the EC50 (in [7]; in the test with BJ [9]) were 0.912 µM (active) and 0.299 µM (active), respectively. Also, the half-maximal inhibitory concentration (IC50) in the test with J774.A1 was 0.116 µM (active); in [8], > 80 µM (inactive).

Turning to `Cc1ccc(Cl)cc1NC(=S)N(Cc1cccs1)C1CCCC1`, the IC50 in [10] is > 32 µM (inactive). Also, the EC50 at Mu-type opioid receptor is > 32 µM (inactive); in test [11], > 32 µM (inactive); in [12] it was 14 µM; in test [13], 13.1 µM.

The AC50 is the midpoint of the concentration-response curve, whichever way the signal moves. For the compound `COc1ccc(-c2cc3nc(C)c(CCC(=O)N4CCN(c5ccccn5)CC4)c(C)n3n2)c(OC)c1`, the AC50 is 7.2 µM (active) at Trypsin and > 100 µM (inactive) at CAAX prenyl protease 2.

Take `COc1cccc(Cc2nc(N)nn2-c2ccccc2)c1`: the IC50 is > 100 µM (not active) in [14], > 100 µM (inactive) in test [15] and > 100 µM (inactive) in test [16].
